This note sets out measurements from ChEMBL document CHEMBL1158660, “Potential anticancer agents. XIV. Isolation of spruceanol and montanin from Cunuria spruceana (Euphorbiaceae)” (1979).

The test system of this experiment is P388. The experiment in a line: Cytotoxicity against mouse P388 cells. The experiment is classed as functional. The conditions noted are these: read-out: ED50 (the source's name).

The structures appear in SMILES notation. Converted amounts (≈) assume the structure as drawn.

In the case of `C=Cc1c(C)c(O)cc2c1CC[C@@H]1C(C)(C)[C@H](O)CC[C@@]21C` [SPRUCEANOL], the EC50 came to 3.2 µg/mL (≈ 10.7 µM). As to `C=C(C)[C@]12C[C@@H](C)[C@@]34O[C@](CCCCCCCCCCC)(O[C@@H]1[C@@H]3[C@@H]1O[C@]1(CO)[C@@H](O)[C@]1(O)C(=O)C(C)=C[C@H]14)O2` [MONTANIN], the EC50 turned out to be 0.06 µg/mL (≈ 0.107 µM).
